Data: US20230103444A1 (The Regents of the University of Colorado, a Body Corporate, priority 2020, published 2023)
Like-named read-outs stand apart in the source and are kept apart here.

Columns and labels:
[1] = system: HCT116 tumor organoids; experiment: Tumor organoid cytotoxicity (CellTiter-Glo 3D); type: cell-based, human
Method: (§1) Cell based cytotoxicity dose response and combination studies. […] Plates were then incubated for 3 days before treatment.
Cell Line Tumor Organoid Culture.
Tumor Organoid Cytotoxicity.

[2] = Mouse liver microsome stability; conditions: CD-1, mouse
Method: Microsome stability. CD-1 mouse microsomes were commercially purchased and the reactions were performed as previously described. […] The master mix was pre-incubated at 37° C. for 5 min, then 1 mM NADPH was added to start the microsomal activity reaction and maintained at 37° C. throughout the time course. Reactions were stopped at 0, 5, 15, 30, 45, and 60 min by adding 200 μL acetonitrile and analyzed by mass spectrometry. The appropriate microsome controls were also performed in the same reaction conditions.

[3] = system: SW620 tumor organoids; experiment: Tumor organoid cytotoxicity (CellTiter-Glo 3D)
[4] = system: SW620 tumor organoids; experiment: Synergy studies with SN38 (LOEWE synergy scores); type: cell-based, human; conditions: killing SW620 tumor organoids
Method: as §1
(e.g., synergy score 20 corresponds to 20% of response beyond expectation). According to our experience, the synergy scores near 0 gives limited confidence on synergy or antagonism.
When the synergy score is: • Less than −10: the interaction between two drugs is likely to be antagonism; • From −10 to 10: the interaction between two drugs is likely to be additivity; • Larger than 10: the interaction between two drugs is likely to be synergy.

[5] = Human microsomal stability; type: in vitro ADME; conditions: human microsomes, Table 6, read-out: Microsomal stability Human t1/2
[6] = target: T1, cat-CHD1L ATPase (Homo sapiens, UniProt Q86WJ1); experiment: CHD1L ATPase assay with recombinant catalytic domain (cat-CHD1L); type: biochemical; conditions: for IC50: Table 6, read-out: cat-CHD1L inhibition IC50
T1 construct: inferred from Ni-NTA / imidazole purification; made in house; host or cells: E. coli Rosetta 2 (DE3) pLysS; constructs were a gift from Helena Berglund, Karolinska Institute
T1 sequence (Q86WJ1 16-611 limits assumed): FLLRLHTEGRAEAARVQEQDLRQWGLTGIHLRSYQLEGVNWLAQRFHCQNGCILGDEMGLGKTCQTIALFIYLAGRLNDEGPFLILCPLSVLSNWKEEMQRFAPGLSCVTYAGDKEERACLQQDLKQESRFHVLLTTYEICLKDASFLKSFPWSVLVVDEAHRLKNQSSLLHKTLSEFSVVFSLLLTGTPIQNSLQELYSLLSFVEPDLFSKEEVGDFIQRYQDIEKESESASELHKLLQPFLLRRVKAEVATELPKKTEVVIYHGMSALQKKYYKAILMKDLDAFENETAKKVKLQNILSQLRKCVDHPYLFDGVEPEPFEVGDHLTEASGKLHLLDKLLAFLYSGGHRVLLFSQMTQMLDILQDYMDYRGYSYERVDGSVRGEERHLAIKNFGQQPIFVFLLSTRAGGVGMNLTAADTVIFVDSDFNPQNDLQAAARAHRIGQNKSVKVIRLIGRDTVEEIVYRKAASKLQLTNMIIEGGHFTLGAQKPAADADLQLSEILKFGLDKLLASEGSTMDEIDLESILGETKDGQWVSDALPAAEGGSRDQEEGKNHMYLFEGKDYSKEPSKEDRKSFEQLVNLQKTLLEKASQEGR
Method: All reactions were carried out using low volume non-binding surface 384-well plates (Corning Inc., Corning N.Y.). cat-CHD1L or fl-CHD1L (100 nM) and 200 nM c-Myc DNA or mononucelosome (Active Motif, Carlsbad, Calif.) were added to a buffer containing 50 mM Tris pH 7.5, 50 mM NaCl, 1 mM DTT, 5% glycerol, and the reaction was initiated by the addition of 10 μM ATP (New England Biolabs, Ipswich, Mass.) to a total volume of 10 μL and incubated at 37° C. for 1 h. ATPase activity was assayed by adding 500 nM of Phosphate Sensor (Life Technologies, Carlsbad, Calif.), containing labeled phosphate-binding protein, specifically labeled with the fluorophore MDCC, and measuring excitation (430 nm) and emission (450 nm) immediately on an EnVision® plate reader (PerkinElmer, Hopkinton, Mass.). An inorganic phosphate standard curve was used to convert the fluorescence to [Pi], and enzyme kinetics were determined using Prism8 (GraphPad Software, San Diego, Calif.).
Assay composition was the same as described above using cat-CHD1L, except that the reaction mixture volume was modified to accommodate addition of drug or DMSO. Using a Janus® liquid handler (PerkinElmer, Hopkinton, Mass.), a selected amount of compounds dissolved in 100% DMSO were mixed with 50 mM Tris pH 7.5, 50 mM NaCl, 1 mM DTT, 5% glycerol buffer to 200 μM in 10% DMSO. […] The negative control used was 1% DMSO and 10 mM EDTA was used as a positive control. Reactions were initiated with the addition of 10 μM ATP and incubated at 37° C. for 1 h. ATPase activity was measured by fluorescence by adding 500 nM Phosphate Sensor. cat-CHD1L was screened against a 20,000-compound diversity set from Life Chemicals (Woodbridge, Conn.) and a Kinase Inhibitor library from Selleck Chemicals (Houston, Tex.).
CHD1L Enzyme ATPase Assay. […] All reactions were carried out using low volume nonbinding surface 384-well plates (Corning Inc., Corning, N.Y.). […] The reaction was initiated by the addition of 10 μmol/L ATP (New England Biolabs, Ipswich, Mass.) to a total volume of 10 μL and incubated at 37° C. for 1 hour. ATPase activity was measured by adding 500 nmol/L of Phosphate Sensor (ThermoFisher, Waltham, Mass.) measuring excitation (430 nm) and emission (450 nm) immediately on an Envision plate reader (PerkinElmer, Waltham, Mass.). Background signal was determined by using all assay components excluding the enzyme.

[7] = Homo sapiens, HCT-116, 72 h, Table 6, read-out: 3 D Cytotoxicity 72 hr IC50 (μM) HCT116
[8] = Homo sapiens, HCT-116, single agent, Table 4A, read-out: Tumor Organoid Cytotoxicity IC50 (μM) HCT116
[9] = liver microsomes, pH 7.4, In Vitro Half-Life (Min), second series, different liver microsome preparation
[10] = Homo sapiens, SW-620, 72 h, read-out: 3 D Cytotoxicity 72 hr IC50 (μM) SW620
[11] = Homo sapiens, SW-620, read-out: Tumor Organoid Cytotoxicity IC50 (μM) SW620
[12] = liver microsomes, pH 7.4, Microsomal stability Mouse t1/2 (min), Table 6
[13] = Homo sapiens, SW-620, read-out: IC50 of cytotoxicity in SW620 cells

Row | SMILES | IC50 [1, 7] [µM] | IC50 [1, 8] [µM] | half-life at 10 μM [2, 9] [min] | IC50 [3, 10] [µM] | IC50 [3, 11] [µM] | IC50 [6] [µM] | also measured
1 | Cc1nc(N2CCCC2)nc(Nc2ccc(NC(=O)Cc3cccs3)cc2)c1F [Compound 6.1, N-(4-((5-fluoro-6-methyl-2-(pyrrolidin-1-yl)pyrimidin-4-yl)amino)phenyl)-2-(thiophen-2-yl)acetamide] | > 40 | > 30 | 34.9 | > 40 | > 40 |  | 
2 | O=C(Cc1cccs1)Nc1ccc(Nc2nc(N3CCCC3)ncc2F)cc1 [Compound 6.2, N-(4-((5-fluoro-2-(pyrrolidin-1-yl)pyrimidin-4-yl)amino)phenyl)-2-(thiophen-2-yl)acetamide] |  |  | 26.1 | > 40 | > 40 |  | 
3 | Cc1nc(N2CCCC2)nc(Nc2ccc(N(C)C(=O)Cc3cccs3)cc2)c1F [Compound 6.4] | > 40 | > 30 |  | > 40 | 28.4 |  | half-life at 10 μM ([2]; microsomes, pH 7.4): 31.4 min
4 | Cc1cc(Nc2ccc(NC(=O)c3c[nH]c4ncccc34)cc2)nc(N2CCCC2)n1 [Compound 6.9, N-(4-((6-methyl-2-(pyrrolidin-1-yl)pyrimidin-4-yl)amino)phenyl)-1H-pyrrolo[2,3-b]pyridine-3-carboxamide] | 19.7 | 19.6 | 295 | 8.3 | 8.1 |  | synergism with irinotecan (and SN38), in words [4]: synergism
5 | COc1cnc(N2CCCC2)nc1Nc1ccc(NC(=O)Cc2cccs2)cc1 [Compound 6.10, N-(4-((5-methoxy-2-(pyrrolidin-1-yl)pyrimidin-4-yl)amino)phenyl)-2-(thiophen-2-yl)-acetamide] | > 40 | > 30 | 16.7 | 24.1 | 22.6 |  | 
6 | Cc1cc(Oc2ccc(NC(=O)Cc3cccs3)cc2)nc(Cl)n1 [Compound 6.12, N-(4-((2-chloro-6-methylpyrimidin-4-yl)oxy)phenyl)-2-(thiophen-2-yl)acetamide] | > 40 | > 30 | 9.3 | > 20 | > 20 |  | 
7 | Cc1cc(Oc2ccc(NC(=O)Cc3cccs3)cc2)nc(N2CCCC2)n1 [Compound 6.13, N-(4-((6-methyl-2-(pyrrolidin-1-yl)pyrimidin-4-yl)oxy)phenyl)-2-(thiophen-2-yl)acetamide] | > 40 | > 30 | 43.1 | > 20 | > 20 |  | 
8 | Cc1cc(Oc2ccc(NC(=O)c3c[nH]c4ccccc34)cc2)nc(N2CCCC2)n1 [Compound 6.14, N-(4-((6-methyl-2-(pyrrolidin-1-yl)pyrimidin-4-yl)oxy)phenyl)-1H-indole-3-carboxamide] | 15.3 | 15.3 | 70.4 | 11.1 | 10.4 |  | 
9 | Cc1cc(Nc2ccc(NC(=O)Cc3cccs3)cc2)nc(N2CCOCC2)n1 [Compound 6.15, N-(4-((6-methyl-2-morpholinopyrimidin-4-yl)amino)phenyl)-2-(thiophen-2-yl)acetamide] | 19.7 | 19.7 | 22.7 | 13.1 | 16.4 |  | 
10 | Cc1cc(Nc2ccc(NC(=O)Cc3cccc4ccccc34)cc2)nc(N2CCCC2)n1 [Compound 6.16, N-(4-((6-methyl-2-(pyrrolidin-1-yl)pyrimidin-4-yl)amino)phenyl)-2-(naphthalen-1-yl)acetamide] | 2.4 | 2.43 |  |  |  |  | half-life [5]: 59.5 min; half-life at 10 μM [2, 12]: 55.5 min; IC50 [3, 13]: < 10 µM
11 | Cc1cc(Nc2ccc(NC(=O)Cc3c(C)[nH]c4ccccc34)cc2)nc(N2CCCC2)n1 [Compound 6.21, 2-(2-methyl-1H-indol-3-yl)-N-(4-((6-methyl-2-(pyrrolidin-1-yl)pyrimidin-4-yl)amino)phenyl)acetamide] |  |  |  | 1.7 | 1.6 |  | half-life [5]: 43.8 min; half-life at 10 μM [2, 12]: 47.8 min; IC50 [3, 13]: < 10 µM
12 | Cc1cc(Nc2ccc(NC(=O)Cc3cc(Br)cs3)cc2)nc(N2CCCCC2)n1 [Compound 6.49] | 14.7 |  |  | 17 |  | 2.3 | 
13 | Cc1cc(Nc2ccc(NC(=O)Cn3ccnc3)cc2)nc(N2CCCC2)n1 [Compound 6.50] | 26.2 |  |  | > 40 |  | > 20 | 
14 | Cc1cc(Nc2ccc(NC(=O)Cn3ccnc3)cc2)nc(N2CCCCC2)n1 [Compound 6.51] | 15.1 |  |  | 40.7 |  | 6 | 
15 | Cc1cc(Nc2ccc(NC(=O)Cn3ccnc3)cc2)nc(N2CCN(C)CC2)n1 [Compound 6.52] | > 20 |  |  | > 20 |  | > 20 | 
16 | Cc1cc(Nc2ccc(NC(=O)Cc3cc(Br)cs3)cc2)n2nc(N)nc2n1 [Compound 6.53] | > 40 |  |  | > 40 |  | > 20 | 
17 | Cc1cc(NCc2ccc(NC(=O)Cc3cc(Br)cs3)cc2)n2nc(N)nc2n1 [Compound 6.54] | > 40 |  |  | > 40 |  | 3.5 | 
18 | Cc1cc(Nc2ccc(NC(=O)Cc3cc(Br)cs3)cc2)n2nc(N3CCCC3)nc2n1 [Compound 6.55] | > 40 |  |  | > 40 |  | 18.7 | 
19 | Cc1cc(NCc2ccc(NC(=O)Cc3cc(Br)cs3)cc2)n2nc(N3CCCC3)nc2n1 [Compound 6.56] | > 40 |  |  | > 40 |  | 2.5 | 
20 | Cc1cc(NCc2ccc(NC(=O)Cc3cc(Br)cs3)cc2)nc(N2CCNCC2)n1 [Compound 6.57] | 10.8 |  |  | 14.6 |  | 2.4 | 
21 | O=C(Cc1cc(Br)cs1)Nc1ccc(CNc2cc(C(F)(F)F)nc(N3CCCC3)n2)cc1 [Compound 6.58] |  |  |  |  |  | 1.4 | CHD1L enzyme inhibition, in words ([6]; recombinant cat-CHD1L): good enzyme inhibition; IC50 ([1]; Table 6, read-out: 3 D Cytotoxicity 72 hr IC50 (μM) HCT116): 7.8 µM; IC50 ([3]; read-out: 3 D Cytotoxicity 72 hr IC50 (μM) SW620, Table 6): 2.2 µM
22 | O=C(Cc1cc(Br)cs1)Nc1ccc(Nc2cc(C(F)(F)F)nc(N3CCCC3)n2)cc1 [Compound 6.59] | 11.9 |  |  | 14.8 |  | 1 | 
